Each block holds one compound with its values, some of them ahead of it.
What was measured:
Histone deacetylase 2 [1] = target: T1, Histone deacetylase 2 (Homo sapiens, UniProt Q92769); test: Inhibition of recombinant HDAC2 (unknown origin) at 50 uM measured after 24 hrs by fluorometric based analysis
Histone deacetylase 3 [2] = target: T2, Histone deacetylase 3 (Homo sapiens, UniProt O15379); test: Inhibition of recombinant HDAC3 (unknown origin) measured after 24 hrs by fluorometric analysis
Histone deacetylase 1 [3] = target: T3, Histone deacetylase 1 (Homo sapiens, UniProt Q13547); test: Inhibition of human recombinant HDAC1 at 50 uM measured after 24 hrs by fluorometric analysis
Histone deacetylase 1 [4] = target: T3, Histone deacetylase 1; test: Inhibition of human recombinant HDAC1 using fluorogenic HDAC substrate measured after 20 mins by fluorescence assay
Histone deacetylase 3 [5] = target: T2, Histone deacetylase 3; test: Inhibition of human HDAC3 using fluorogenic as substrate measured after 30 mins by fluorescence based analysis
Histone deacetylase 2 [6] = target: T1, Histone deacetylase 2; test: Inhibition of human recombinant HDAC2 using fluorogenic HDAC substrate measured after 20 mins by fluorescence assay
PC-3 = test: Anticancer activity against human PC-3 cells assessed as reduction in cell viability; assay type: functional, cell-based
Histone deacetylase 1 [7] = target: T3, Histone deacetylase 1; test: Inhibition of human HDAC1 by fluorescence based assay method
Histone deacetylase 3 [8] = target: T2, Histone deacetylase 3; test: Inhibition of HDAC3 (unknown origin) at 10 uM
Histone deacetylase 1 [9] = target: T3, Histone deacetylase 1; test: Inhibition of human recombinant HDAC1 using Fluor-de-Lys as substrate at 50 uM for 30 mins by fluorescence based assay
Histone deacetylase 2 [10] = target: T1, Histone deacetylase 2; test: Inhibition of human recombinant HDAC2 using Fluor-de-Lys as substrate at 50 uM for 30 mins by fluorescence based assay
[11] = target: T4, Protein deacetylase HDAC6 (Homo sapiens, UniProt Q9UBN7); test: Inhibition of human recombinant HDAC6 using Fluor-de-Lys as substrate at 50 uM for 30 mins by fluorescence based assay
T4 sequence (Q9UBN7 whole entry): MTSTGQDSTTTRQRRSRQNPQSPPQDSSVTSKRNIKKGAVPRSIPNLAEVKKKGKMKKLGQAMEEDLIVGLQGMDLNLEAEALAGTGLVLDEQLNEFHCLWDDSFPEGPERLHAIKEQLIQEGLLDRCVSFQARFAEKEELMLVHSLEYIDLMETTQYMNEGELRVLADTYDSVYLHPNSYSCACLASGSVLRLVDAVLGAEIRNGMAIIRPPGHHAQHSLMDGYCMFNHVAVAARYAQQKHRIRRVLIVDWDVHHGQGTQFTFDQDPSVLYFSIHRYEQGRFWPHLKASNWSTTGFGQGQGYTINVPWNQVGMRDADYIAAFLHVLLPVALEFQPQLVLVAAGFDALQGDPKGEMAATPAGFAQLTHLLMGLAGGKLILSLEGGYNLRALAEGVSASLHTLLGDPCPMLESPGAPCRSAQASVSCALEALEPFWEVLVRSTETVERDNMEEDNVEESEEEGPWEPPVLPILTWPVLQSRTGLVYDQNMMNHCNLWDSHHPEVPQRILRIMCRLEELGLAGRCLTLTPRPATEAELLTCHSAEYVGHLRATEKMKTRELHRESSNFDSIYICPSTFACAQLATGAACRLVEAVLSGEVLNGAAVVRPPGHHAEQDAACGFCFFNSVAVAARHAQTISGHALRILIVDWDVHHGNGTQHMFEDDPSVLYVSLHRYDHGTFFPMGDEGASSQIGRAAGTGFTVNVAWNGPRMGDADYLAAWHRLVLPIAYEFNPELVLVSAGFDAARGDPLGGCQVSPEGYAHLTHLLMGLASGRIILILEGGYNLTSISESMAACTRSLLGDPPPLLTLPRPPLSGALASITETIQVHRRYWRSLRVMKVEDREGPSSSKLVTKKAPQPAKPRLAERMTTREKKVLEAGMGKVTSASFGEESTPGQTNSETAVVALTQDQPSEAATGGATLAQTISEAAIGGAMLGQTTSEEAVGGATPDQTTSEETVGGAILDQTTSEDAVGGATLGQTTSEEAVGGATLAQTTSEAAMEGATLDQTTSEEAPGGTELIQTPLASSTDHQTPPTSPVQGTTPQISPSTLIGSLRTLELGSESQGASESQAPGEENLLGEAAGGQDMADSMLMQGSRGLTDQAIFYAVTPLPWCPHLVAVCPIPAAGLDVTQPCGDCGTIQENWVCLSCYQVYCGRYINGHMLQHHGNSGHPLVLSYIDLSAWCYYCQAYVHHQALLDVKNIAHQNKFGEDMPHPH

[12] = target: T5, Polyamine deacetylase HDAC10 (Homo sapiens, UniProt Q969S8); test: Inhibition of human recombinant HDAC10 using Fluor-de-Lys as substrate at 50 uM for 30 mins by fluorescence based assay
T5 sequence (Q969S8 whole entry): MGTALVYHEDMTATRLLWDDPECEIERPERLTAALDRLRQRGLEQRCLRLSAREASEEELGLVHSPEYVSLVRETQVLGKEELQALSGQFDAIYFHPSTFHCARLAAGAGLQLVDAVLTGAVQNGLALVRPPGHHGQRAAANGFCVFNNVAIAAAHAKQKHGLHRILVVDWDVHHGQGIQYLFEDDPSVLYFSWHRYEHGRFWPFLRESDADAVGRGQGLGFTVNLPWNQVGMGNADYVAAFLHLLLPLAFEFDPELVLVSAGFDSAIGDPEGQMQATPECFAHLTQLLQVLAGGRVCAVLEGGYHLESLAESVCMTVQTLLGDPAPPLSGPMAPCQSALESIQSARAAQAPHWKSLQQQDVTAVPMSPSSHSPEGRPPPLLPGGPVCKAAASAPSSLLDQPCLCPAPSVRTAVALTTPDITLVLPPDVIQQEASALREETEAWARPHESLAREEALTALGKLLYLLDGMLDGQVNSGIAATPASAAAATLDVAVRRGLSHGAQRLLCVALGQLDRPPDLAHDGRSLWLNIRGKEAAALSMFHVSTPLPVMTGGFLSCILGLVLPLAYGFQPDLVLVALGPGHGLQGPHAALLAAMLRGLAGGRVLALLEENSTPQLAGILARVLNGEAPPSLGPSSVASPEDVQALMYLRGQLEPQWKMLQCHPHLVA

Histone deacetylase 3 [13] = target: T2, Histone deacetylase 3; test: Inhibition of HDAC3 (unknown origin) at 5uM

T3 sequence (Q13547 whole entry): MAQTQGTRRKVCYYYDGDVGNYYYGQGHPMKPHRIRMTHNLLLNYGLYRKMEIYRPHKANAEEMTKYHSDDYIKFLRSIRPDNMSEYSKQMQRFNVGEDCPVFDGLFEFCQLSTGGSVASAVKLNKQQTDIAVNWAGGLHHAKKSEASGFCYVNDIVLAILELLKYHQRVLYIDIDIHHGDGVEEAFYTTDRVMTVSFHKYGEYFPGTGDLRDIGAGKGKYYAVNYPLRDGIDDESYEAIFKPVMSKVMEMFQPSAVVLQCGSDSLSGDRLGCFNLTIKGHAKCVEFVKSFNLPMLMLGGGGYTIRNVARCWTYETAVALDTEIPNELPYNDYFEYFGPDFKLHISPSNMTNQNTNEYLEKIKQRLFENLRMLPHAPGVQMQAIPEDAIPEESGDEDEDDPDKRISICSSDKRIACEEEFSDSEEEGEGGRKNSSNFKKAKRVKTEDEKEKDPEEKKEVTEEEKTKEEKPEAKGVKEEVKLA
T2 sequence (O15379 whole entry): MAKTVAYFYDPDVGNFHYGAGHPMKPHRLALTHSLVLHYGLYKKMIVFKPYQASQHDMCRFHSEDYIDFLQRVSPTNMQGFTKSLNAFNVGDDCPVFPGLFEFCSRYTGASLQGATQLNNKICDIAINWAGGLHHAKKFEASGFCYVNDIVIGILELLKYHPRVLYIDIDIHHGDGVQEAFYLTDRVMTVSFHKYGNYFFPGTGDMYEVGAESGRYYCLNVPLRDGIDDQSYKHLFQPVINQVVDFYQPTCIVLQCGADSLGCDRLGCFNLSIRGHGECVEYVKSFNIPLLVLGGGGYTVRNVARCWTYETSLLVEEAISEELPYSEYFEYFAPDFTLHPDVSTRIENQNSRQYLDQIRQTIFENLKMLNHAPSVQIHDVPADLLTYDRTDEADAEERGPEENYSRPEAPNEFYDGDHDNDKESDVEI
T1 sequence (Q92769 whole entry): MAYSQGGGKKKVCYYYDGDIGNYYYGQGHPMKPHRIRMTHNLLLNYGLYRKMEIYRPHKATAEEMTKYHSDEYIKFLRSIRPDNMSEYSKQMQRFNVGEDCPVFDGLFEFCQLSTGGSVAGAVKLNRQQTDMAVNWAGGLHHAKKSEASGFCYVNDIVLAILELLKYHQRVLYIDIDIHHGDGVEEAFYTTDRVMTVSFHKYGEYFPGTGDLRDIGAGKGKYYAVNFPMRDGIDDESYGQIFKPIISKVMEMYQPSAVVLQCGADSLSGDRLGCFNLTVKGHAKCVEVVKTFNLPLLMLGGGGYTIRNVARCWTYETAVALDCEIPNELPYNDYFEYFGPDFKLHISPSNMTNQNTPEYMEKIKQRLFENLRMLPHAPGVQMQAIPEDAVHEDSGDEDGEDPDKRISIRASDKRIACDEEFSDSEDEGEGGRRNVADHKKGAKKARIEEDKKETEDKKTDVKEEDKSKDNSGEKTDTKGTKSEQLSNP

SMILES: Nc1ccc(F)cc1NC(=O)c1cc2ccccc2o1
IC50 (Histone deacetylase 2 [1]): 1500 nM
IC50 (Histone deacetylase 3 [2]): 80 nM
IC50 (Histone deacetylase 1 [3]): 1200 nM

SMILES: Nc1ccccc1NC(=O)c1ccc(CNc2nc(-c3ccccc3)c(-c3ccccc3)o2)cc1
IC50 (Histone deacetylase 1 [7]): 6 nM

SMILES: Nc1ccccc1NC(=O)CCCCCCC(=O)NO
IC50 (Histone deacetylase 1 [9]): 67.2 nM
IC50 (Histone deacetylase 2 [10]): 101 nM
IC50 [11]: 9.93 nM
IC50 [12]: 49.3 nM

SMILES: O=C(CCCCCCN1C=Cc2ccccc2C1)NO
IC50 (Histone deacetylase 3 [13]): 97 nM

Second part, the compound after the results:

IC50 (Histone deacetylase 1 [4]): 4.8 nM
IC50 (Histone deacetylase 3 [5]): 5.9 nM
IC50 (Histone deacetylase 2 [6]): 19.5 nM
IC50 (PC-3): 1510 nM
SMILES: COc1ccccc1NC(=O)N[C@H](C(=O)Nc1ccc(C(=O)NO)cc1)c1ccccc1

IC50 (Histone deacetylase 3 [8]): 62500 nM
SMILES: COc1ccc(C(=O)N[C@@H](Cc2c[nH]c3ccccc23)C(=O)Nc2ccc(C(=O)Nc3ccc(-c4cccs4)cc3N)cc2)cc1
